# Experimental data: ChEMBL document CHEMBL4483862, “Open-source discovery of chemical leads for next-generation chemoprotective antimalarials” (2018)
# Tested on: Plasmodium berghei
# Assay: Luciferase/luciferin-expressing antifolate-resistant parasites were used to infect a culture of HepG2 cells that were pre-incubated with compounds. Infected hepatocytes emit light due to the luciferase reaction. Assay results are presented as the percent inhibition of light emission compared to control. […]
# Format: functional
# Details: sporozoite; for IC90: read-out: LUCIFERASE INFECTION ASSAY - IC90
# [1] = read-out: LUCIFERASE INFECTION ASSAY - IC50
Structure (SMILES),IC90 [µM],IC50 [1] [µM],also measured
O=C(c1cc(F)cc(F)c1)N1[C@@H]2CC[C@@H](C2)[C@H]1c1nc2c(OCCC3CCCCC3)cccc2[nH]1,> 10,–,"IC50 (FFLUC_HILL_SLOPE 146, FFLUC_R_SQUARED 0.488, HEPG2TOX_HILL_SLOPE 10.5, HEPG2TOX_R_SQUARED 0.576, PBLUC_HILL_SLOPE 12.2, PBLUC_R_SQUARED 0.352, read-out: LUCIFERASE INFECTION ASSAY - IC50): 9.64 µM"
COc1ccc2[nH]cc(CCNC(=O)Nc3ccc(Cl)c(Cl)c3)c2c1,> 8.72,> 8.72,–
COc1cc(Cl)c(C)cc1NC(=O)Cn1c(=O)c(=O)n(Cc2ccccc2)c2ccc(Cl)cc21,> 10,–,"IC50 (FFLUC_HILL_SLOPE 92.5, FFLUC_R_SQUARED 0.216, PBLUC_HILL_SLOPE 2.05, PBLUC_R_SQUARED 0.328, read-out: LUCIFERASE INFECTION ASSAY - IC50): 4.54 µM"
COc1cccc(CN2CCc3c(c(C(=O)NCCCc4ccccc4)nn3Cc3ccncc3)C2)c1,5.47,–,"IC50 (PBLUC_HILL_SLOPE 4.39, PBLUC_R_SQUARED 0.179, read-out: LUCIFERASE INFECTION ASSAY - IC50): 3.31 µM"
Cc1nc2c(/C(N)=N/OCc3cccc(Cl)c3)cnn2c(C)c1C,> 9.6,> 9.6,–
CCOC(=O)Nc1cccc(N)c1C,> 10,> 10,–
O=c1c2c([nH]c3c(-c4ccccc4)c(Cc4ccccc4)nn13)CCCC2,> 9.28,> 9.28,–
CCN(CC)S(=O)(=O)c1ccc2c(c1)CCN2Cc1nc2ccccc2c(=O)n1C,> 10,–,"IC50 (HEPG2TOX_HILL_SLOPE 0.751, HEPG2TOX_R_SQUARED 0.213, PBLUC_HILL_SLOPE 2.58, PBLUC_R_SQUARED 0.526, read-out: LUCIFERASE INFECTION ASSAY - IC50): 6.02 µM"
O=C(NCCO)c1cccc(-c2cn3c(-c4ccc(Cl)cc4)cnc3cn2)c1,3.17,–,"IC50 (HEPG2TOX_HILL_SLOPE 8.8, HEPG2TOX_R_SQUARED 0.456, PBLUC_HILL_SLOPE 3.73, PBLUC_R_SQUARED 0.895, read-out: LUCIFERASE INFECTION ASSAY - IC50): 1.76 µM"
CCOCCCNC(=O)/C(C#N)=C/c1ccc(Cl)c([N+](=O)[O-])c1,9.95,5.19,–
COc1cc(NC(=O)C(C)(C)n2cc(-c3cccnc3)cn2)cc(OC)c1,> 10,> 10,–
O=C(CCn1ccc2ccccc21)NC(Cc1ncc[nH]1)c1ccccc1 (configuration not stated),4.79,–,"IC50 (PBLUC_HILL_SLOPE 8.72, PBLUC_R_SQUARED 0.12, read-out: LUCIFERASE INFECTION ASSAY - IC50): 3.72 µM"
O=C(CN1CCNCC1)N1CCOCC1,> 15.5,> 15.5,–
S=C(Nc1ccc(Cl)c(Cl)c1)N1c2ccccc2-n2cccc2C1c1cccnc1 (configuration not stated),6.49,–,"IC50 (PBLUC_HILL_SLOPE 3.68, PBLUC_R_SQUARED 0.381, read-out: LUCIFERASE INFECTION ASSAY - IC50): 3.57 µM"
O=C(c1cccc(-c2cccnc2)c1)c1cnc(Nc2ccccc2)[nH]1,9.25,–,"IC50 (HEPG2TOX_HILL_SLOPE 16.4, HEPG2TOX_R_SQUARED 0.215, PBLUC_HILL_SLOPE 5.04, PBLUC_R_SQUARED 0.615, read-out: LUCIFERASE INFECTION ASSAY - IC50): 5.98 µM"
CSc1sc(Br)c2c1/C(=N\O)CC(C)(C)C2,> 10.3,> 10.3,–
O=C(CSc1nn(Cc2ccccc2)/c(=N\Cc2ccccc2)s1)NC(=O)NC1CCCCC1,> 10,–,"IC50 (FFLUC_HILL_SLOPE 7.96, FFLUC_R_SQUARED 0.22, read-out: LUCIFERASE INFECTION ASSAY - IC50): > 10 µM"
CCOC(=O)c1cc(-c2ccccc2)sc1NC(=O)CSc1nnc(-c2ccc(C(C)(C)C)cc2)n1-c1ccccc1,> 10,–,"IC50 (FFLUC_HILL_SLOPE 0.186, FFLUC_R_SQUARED 0.0278, read-out: LUCIFERASE INFECTION ASSAY - IC50): > 10 µM"
CCCCc1[nH]nc2ccnc(-c3ccc(CO)cc3)c12,> 10,–,"IC50 (HEPG2TOX_HILL_SLOPE 1.75, HEPG2TOX_R_SQUARED 0.977, read-out: LUCIFERASE INFECTION ASSAY - IC50): > 10 µM"
CCN(CC)CCn1c(NC(=O)c2cc3c(C)nn(Cc4ccccc4)c3s2)nc2ccccc21,5.29,–,"IC50 (FFLUC_HILL_SLOPE 11, FFLUC_R_SQUARED 0.377, PBLUC_HILL_SLOPE 1.67, PBLUC_R_SQUARED 0.43, read-out: LUCIFERASE INFECTION ASSAY - IC50): 1.42 µM"
CC(Sc1nc(-c2ccccc2)c(-c2ccccc2)o1)C(=O)NCc1ccco1 (configuration not stated),8.62,–,"IC50 (HEPG2TOX_HILL_SLOPE 0.891, HEPG2TOX_R_SQUARED 0.604, PBLUC_HILL_SLOPE 2.26, 2.77, PBLUC_R_SQUARED 0.745, 0.857, read-out: LUCIFERASE INFECTION ASSAY - IC50): 5.29 µM"

Structure (SMILES),IC90 [µM],IC50 [1] [µM],also measured
O=[N+]([O-])c1ccc(C(O)CNc2ccccc2S(=O)(=O)C(F)(F)F)cc1 (configuration not stated),1.21,–,"IC50 (HEPG2TOX_HILL_SLOPE 1.62, HEPG2TOX_R_SQUARED 0.763, PBLUC_HILL_SLOPE 5.41, PBLUC_R_SQUARED 0.533, read-out: LUCIFERASE INFECTION ASSAY - IC50): 0.807 µM"
Cc1ncsc1CCOC(=O)c1cc(Cl)c2c(c1)OCCO2,> 10,> 10,–
CCCNC(=O)c1c(NC(=O)c2cccc(F)c2)nc2ccc(C)cn12,> 9.31,–,"IC50 (PBLUC_HILL_SLOPE 9.17, PBLUC_R_SQUARED 0.612, read-out: LUCIFERASE INFECTION ASSAY - IC50): 7.79 µM"
COC(=O)c1c(C)[nH]c(C(=O)CSc2nnc(C)s2)c1C,> 10,> 10,–
O=C(Nc1ccc(Oc2ccc3ccccc3c2)cc1)c1ccccc1,1.16,–,"IC50 (HEPG2TOX_HILL_SLOPE 2.3, HEPG2TOX_R_SQUARED 0.782, PBLUC_HILL_SLOPE 2.18, PBLUC_R_SQUARED 0.822, read-out: LUCIFERASE INFECTION ASSAY - IC50): 0.424 µM"
CSc1nc2c3c(sc2c2nnc(SCCN(C)C)n12)CCCC3,> 8.69,–,"IC50 (PBLUC_HILL_SLOPE 2.05, PBLUC_R_SQUARED 0.263, read-out: LUCIFERASE INFECTION ASSAY - IC50): 5.45 µM"
NC(=O)c1ccsc1NC(=O)COC(=O)c1ccc2c(c1Cl)C(=O)c1ccccc1C2=O,> 10,> 10,–
CCOc1cc(/C=C/C(=O)c2nc3ccccc3s2)cc(Cl)c1OCC(=O)N(C)C,4.79,–,"IC50 (HEPG2TOX_HILL_SLOPE 10.9, HEPG2TOX_R_SQUARED 0.987, PBLUC_HILL_SLOPE 8.99, 3.54, PBLUC_R_SQUARED 0.449, 0.614, read-out: LUCIFERASE INFECTION ASSAY - IC50): 4.84 µM"
CCC(C)NC(=O)c1c(NC(=O)c2cccc(C)c2)nc2ccc(C)cn12 (configuration not stated),6.6,–,"IC50 (HEPG2TOX_HILL_SLOPE 8.22, HEPG2TOX_R_SQUARED 0.0887, PBLUC_HILL_SLOPE 4.24, PBLUC_R_SQUARED 0.444, read-out: LUCIFERASE INFECTION ASSAY - IC50): 3.93 µM"
OC(c1cccc(OC(F)(F)F)c1)c1nnc(Nc2ccc(F)c(Cl)c2)s1 (configuration not stated),> 10,–,"IC50 (FFLUC_HILL_SLOPE 2.61, FFLUC_R_SQUARED 0.0634, read-out: LUCIFERASE INFECTION ASSAY - IC50): > 10 µM"
NCCCNc1ccnc2cc(Cl)ccc12,> 14,–,"IC50 (PBLUC_HILL_SLOPE 2.91, PBLUC_R_SQUARED 0.438, read-out: LUCIFERASE INFECTION ASSAY - IC50): 8.74 µM"
Cc1cc(NC(=O)Cn2ncc(Br)c(Br)c2=O)n(C)n1,> 10,–,"IC50 (FFLUC_HILL_SLOPE 13, FFLUC_R_SQUARED 0.376, HEPG2TOX_HILL_SLOPE 25.8, HEPG2TOX_R_SQUARED 0.794, PBLUC_HILL_SLOPE 3.09, PBLUC_R_SQUARED 0.556, read-out: LUCIFERASE INFECTION ASSAY - IC50): 5.35 µM"
CC(C(=O)Nc1cc(S(=O)(=O)N2CCCCC2)ccc1Cl)N1CCN(c2ccccn2)CC1 (configuration not stated),> 10,> 10,–
COCC(C)n1c(C)cc(C(=O)COC(=O)[C@@H]2CCCN2C(=O)c2cccs2)c1C (some centres not stated),> 10,> 10,–
CC(Sc1nc2scc(-c3ccccc3)c2c(=O)n1C)c1ccccc1 (configuration not stated),> 10,–,"IC50 (HEPG2TOX_HILL_SLOPE 0.394, HEPG2TOX_R_SQUARED 0.0907, read-out: LUCIFERASE INFECTION ASSAY - IC50): > 10 µM"
NC(Cc1ccc(F)cc1)c1csc(Nc2ccc(C(F)(F)F)cn2)n1 (configuration not stated),5.98,–,"IC50 (PBLUC_HILL_SLOPE 202, PBLUC_R_SQUARED 0.785, read-out: LUCIFERASE INFECTION ASSAY - IC50): 5.91 µM"
O=C(c1cn(-c2ccccc2)nc1-c1cccs1)N1c2ccccc2CCc2ccccc21,> 10,–,"IC50 (FFLUC_HILL_SLOPE 15.3, FFLUC_R_SQUARED 0.476, HEPG2TOX_HILL_SLOPE 1.99, HEPG2TOX_R_SQUARED 0.329, PBLUC_HILL_SLOPE 2.58, PBLUC_R_SQUARED 0.689, read-out: LUCIFERASE INFECTION ASSAY - IC50): 6.76 µM"
Cc1cc2oc(=O)cc(COC(=O)c3cccc(S(=O)(=O)N(Cc4ccccc4)c4cccc(C(F)(F)F)c4)c3)c2cc1C(C)C,> 10,> 10,–
CCCNc1nccn2c(-c3ccc(C(=O)NC4CC4)cc3)cnc12,7.31,–,"IC50 (HEPG2TOX_HILL_SLOPE 2.37, HEPG2TOX_R_SQUARED 0.851, PBLUC_HILL_SLOPE 7.04, PBLUC_R_SQUARED 0.366, read-out: LUCIFERASE INFECTION ASSAY - IC50): 5.35 µM"
CN(C)Cc1ccc(CNC(=O)Cc2ccc(-c3ccccc3)cc2)cc1,7.76,–,"IC50 (HEPG2TOX_HILL_SLOPE 3.86, HEPG2TOX_R_SQUARED 0.943, PBLUC_HILL_SLOPE 3.55, PBLUC_R_SQUARED 0.451, read-out: LUCIFERASE INFECTION ASSAY - IC50): 4.18 µM"
